Test results from patent US20060258681A1, “3-Z-[1-(4-(N-((4-Methyl-piperazin-1-yl)-methylcarbonyl)-N-methyl-amino)-anilino)-1-phenyl-methylene]-6-methoxycarbonyl-2-indolinone-monoethanesulphonate and the use thereof as a pharmaceutical composition” (priority 2002, published 2006).

How the values were obtained:
[1] = hygroscopicity; type: physicochemical
[2] = solubility in physiologically acceptable solvents; type: physicochemical
[3] = amorphisation during grinding and compression; type: physicochemical
[4] = biological target: PDGFR-alpha (Homo sapiens, UniProt P16234); assay: standard known kinase inhibition assay, PDGFR-alpha; type: biochemical
Chain of PDGFR-alpha (P16234 24-1089, species assumed): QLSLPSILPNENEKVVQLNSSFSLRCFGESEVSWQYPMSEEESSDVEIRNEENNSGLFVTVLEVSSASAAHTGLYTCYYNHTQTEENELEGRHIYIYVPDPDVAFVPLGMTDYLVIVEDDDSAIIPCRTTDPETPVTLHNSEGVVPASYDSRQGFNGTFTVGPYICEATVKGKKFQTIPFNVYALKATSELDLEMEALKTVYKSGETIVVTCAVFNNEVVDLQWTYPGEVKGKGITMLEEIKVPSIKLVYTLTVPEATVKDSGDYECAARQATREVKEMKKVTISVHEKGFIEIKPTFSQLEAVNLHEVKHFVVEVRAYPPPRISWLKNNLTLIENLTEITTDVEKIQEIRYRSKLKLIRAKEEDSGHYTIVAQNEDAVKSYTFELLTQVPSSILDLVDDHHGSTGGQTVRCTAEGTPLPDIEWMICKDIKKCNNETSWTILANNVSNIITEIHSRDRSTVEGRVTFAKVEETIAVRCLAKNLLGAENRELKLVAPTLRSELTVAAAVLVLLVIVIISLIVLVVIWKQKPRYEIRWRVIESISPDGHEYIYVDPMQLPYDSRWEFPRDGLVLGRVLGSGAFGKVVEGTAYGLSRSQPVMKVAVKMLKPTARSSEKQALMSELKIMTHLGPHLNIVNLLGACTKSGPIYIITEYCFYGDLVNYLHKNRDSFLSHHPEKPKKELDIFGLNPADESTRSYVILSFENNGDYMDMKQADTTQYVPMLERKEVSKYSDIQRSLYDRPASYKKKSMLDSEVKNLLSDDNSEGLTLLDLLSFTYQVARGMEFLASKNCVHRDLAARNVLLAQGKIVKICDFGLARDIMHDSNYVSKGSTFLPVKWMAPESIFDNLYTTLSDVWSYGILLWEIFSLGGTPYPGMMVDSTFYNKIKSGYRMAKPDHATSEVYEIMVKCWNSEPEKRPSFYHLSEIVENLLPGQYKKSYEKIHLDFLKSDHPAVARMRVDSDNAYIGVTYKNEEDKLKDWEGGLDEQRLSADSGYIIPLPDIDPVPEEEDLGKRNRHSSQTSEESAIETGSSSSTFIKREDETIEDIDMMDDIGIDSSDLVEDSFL
Text: (§1) Experimental studies have shown that a metabolite of the compound 3-Z-[1-(4-(N-((4-methyl-piperazin-1-yl)-methylcarbonyl)-N-methyl-amino)-anilino)-1-phenyl-methylene]-6-methoxycarbonyl-2-indolinone-monoethanesulphonate is the de-esterified 3-Z-[1-(4-(N-((4-methyl-piperazin-1-yl)-carbonyl)-N-methyl-amino)-anilino)-1-phenyl-methylene]-6-carboxy-2-indolinone. The in-vitro inhibitory activity of this metabolite on several kinases has been evaluated, using standard known kinase inhibition assays as well as a standard known cellular proliferation inhibition assay (inhibition of the proliferation of Human Umbilical Cord Endothelial Cells stimulated by the VEGF, the so-called “HUVEC cellular assay”). These experimental results have shown that this metabolite inhibits several kinases, such as VEGFR-2, VEGFR-3, Her-2, FGFR-1, PDGFR-alpha or InsR, as well as the proliferation of HUVEC VEGF stimulated cells.

[5] = biological target: InsR (Homo sapiens, UniProt P06213); assay: standard known kinase inhibition assay, InsR; type: biochemical
Text: as §1

[6] = biological target: VEGFR-3 (Homo sapiens, UniProt P35916); assay: standard known kinase inhibition assay, VEGFR-3; type: biochemical
Text: as §1

[7] = biological target: VEGFR-2 (Homo sapiens, UniProt P35968); assay: standard known kinase inhibition assay, VEGFR-2; type: biochemical
Chain of VEGFR-2 (P35968 20-1356, species assumed): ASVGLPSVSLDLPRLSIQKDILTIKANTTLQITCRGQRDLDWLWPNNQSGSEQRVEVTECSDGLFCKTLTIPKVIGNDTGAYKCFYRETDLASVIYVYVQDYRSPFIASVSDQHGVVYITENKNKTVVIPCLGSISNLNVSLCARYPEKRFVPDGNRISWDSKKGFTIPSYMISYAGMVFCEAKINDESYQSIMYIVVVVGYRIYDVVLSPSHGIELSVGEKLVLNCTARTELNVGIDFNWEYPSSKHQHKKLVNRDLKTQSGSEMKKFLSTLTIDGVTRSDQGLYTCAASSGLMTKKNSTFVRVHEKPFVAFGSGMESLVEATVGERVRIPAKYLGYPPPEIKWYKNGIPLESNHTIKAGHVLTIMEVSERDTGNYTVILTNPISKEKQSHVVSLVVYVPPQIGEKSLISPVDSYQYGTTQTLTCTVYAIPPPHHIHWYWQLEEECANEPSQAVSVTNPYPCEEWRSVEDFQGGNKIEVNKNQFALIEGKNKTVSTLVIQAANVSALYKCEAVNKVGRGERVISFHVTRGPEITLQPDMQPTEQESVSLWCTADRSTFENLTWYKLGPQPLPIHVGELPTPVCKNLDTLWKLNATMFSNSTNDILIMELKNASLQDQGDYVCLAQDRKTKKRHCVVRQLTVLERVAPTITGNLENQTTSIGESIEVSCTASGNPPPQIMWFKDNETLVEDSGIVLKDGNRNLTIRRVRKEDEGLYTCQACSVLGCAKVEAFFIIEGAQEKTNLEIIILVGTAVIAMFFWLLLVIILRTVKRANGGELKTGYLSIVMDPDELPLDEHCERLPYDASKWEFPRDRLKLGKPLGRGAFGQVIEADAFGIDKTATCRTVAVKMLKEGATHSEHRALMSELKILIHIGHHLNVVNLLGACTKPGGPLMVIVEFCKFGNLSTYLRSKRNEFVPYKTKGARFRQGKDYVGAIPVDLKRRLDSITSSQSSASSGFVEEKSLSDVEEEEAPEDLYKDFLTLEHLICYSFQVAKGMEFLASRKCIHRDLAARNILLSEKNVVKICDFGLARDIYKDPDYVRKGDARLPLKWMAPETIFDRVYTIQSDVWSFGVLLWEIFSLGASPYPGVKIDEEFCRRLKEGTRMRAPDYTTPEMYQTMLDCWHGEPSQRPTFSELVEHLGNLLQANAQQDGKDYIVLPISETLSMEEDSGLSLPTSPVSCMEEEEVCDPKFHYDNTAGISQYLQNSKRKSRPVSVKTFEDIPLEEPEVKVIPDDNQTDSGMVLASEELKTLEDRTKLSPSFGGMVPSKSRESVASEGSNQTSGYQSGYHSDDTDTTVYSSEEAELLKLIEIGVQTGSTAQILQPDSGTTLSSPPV
Text: as §1

[8] = biological target: FGFR-1 (Homo sapiens, UniProt P11362); assay: standard known kinase inhibition assay, FGFR-1; type: biochemical
Chain of FGFR-1 (P11362 22-822, species assumed): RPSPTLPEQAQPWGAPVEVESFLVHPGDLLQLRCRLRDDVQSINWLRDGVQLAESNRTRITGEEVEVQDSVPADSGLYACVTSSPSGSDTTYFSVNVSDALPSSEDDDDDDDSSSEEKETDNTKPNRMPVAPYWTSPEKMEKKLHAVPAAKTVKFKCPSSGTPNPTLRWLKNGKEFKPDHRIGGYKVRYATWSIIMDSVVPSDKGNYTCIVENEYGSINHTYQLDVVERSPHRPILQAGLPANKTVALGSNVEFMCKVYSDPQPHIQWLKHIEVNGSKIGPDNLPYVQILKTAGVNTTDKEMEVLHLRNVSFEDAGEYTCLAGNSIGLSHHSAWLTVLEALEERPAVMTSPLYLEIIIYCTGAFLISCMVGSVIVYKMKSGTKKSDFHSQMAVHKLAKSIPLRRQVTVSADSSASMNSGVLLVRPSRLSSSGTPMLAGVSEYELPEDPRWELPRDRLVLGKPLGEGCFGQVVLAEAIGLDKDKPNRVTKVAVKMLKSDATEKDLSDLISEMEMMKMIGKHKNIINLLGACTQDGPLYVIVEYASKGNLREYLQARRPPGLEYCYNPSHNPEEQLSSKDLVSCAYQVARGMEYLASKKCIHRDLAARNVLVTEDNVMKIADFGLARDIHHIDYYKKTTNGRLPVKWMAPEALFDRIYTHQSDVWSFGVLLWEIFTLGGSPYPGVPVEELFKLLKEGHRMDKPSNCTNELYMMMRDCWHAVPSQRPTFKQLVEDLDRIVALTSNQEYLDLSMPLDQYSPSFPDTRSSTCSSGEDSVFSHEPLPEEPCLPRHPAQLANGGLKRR
Text: as §1

[9] = biological target: Her-2 (Homo sapiens, UniProt P04626); assay: standard known kinase inhibition assay, Her-2; type: biochemical
Chain of Her-2 (P04626 23-1255, species assumed): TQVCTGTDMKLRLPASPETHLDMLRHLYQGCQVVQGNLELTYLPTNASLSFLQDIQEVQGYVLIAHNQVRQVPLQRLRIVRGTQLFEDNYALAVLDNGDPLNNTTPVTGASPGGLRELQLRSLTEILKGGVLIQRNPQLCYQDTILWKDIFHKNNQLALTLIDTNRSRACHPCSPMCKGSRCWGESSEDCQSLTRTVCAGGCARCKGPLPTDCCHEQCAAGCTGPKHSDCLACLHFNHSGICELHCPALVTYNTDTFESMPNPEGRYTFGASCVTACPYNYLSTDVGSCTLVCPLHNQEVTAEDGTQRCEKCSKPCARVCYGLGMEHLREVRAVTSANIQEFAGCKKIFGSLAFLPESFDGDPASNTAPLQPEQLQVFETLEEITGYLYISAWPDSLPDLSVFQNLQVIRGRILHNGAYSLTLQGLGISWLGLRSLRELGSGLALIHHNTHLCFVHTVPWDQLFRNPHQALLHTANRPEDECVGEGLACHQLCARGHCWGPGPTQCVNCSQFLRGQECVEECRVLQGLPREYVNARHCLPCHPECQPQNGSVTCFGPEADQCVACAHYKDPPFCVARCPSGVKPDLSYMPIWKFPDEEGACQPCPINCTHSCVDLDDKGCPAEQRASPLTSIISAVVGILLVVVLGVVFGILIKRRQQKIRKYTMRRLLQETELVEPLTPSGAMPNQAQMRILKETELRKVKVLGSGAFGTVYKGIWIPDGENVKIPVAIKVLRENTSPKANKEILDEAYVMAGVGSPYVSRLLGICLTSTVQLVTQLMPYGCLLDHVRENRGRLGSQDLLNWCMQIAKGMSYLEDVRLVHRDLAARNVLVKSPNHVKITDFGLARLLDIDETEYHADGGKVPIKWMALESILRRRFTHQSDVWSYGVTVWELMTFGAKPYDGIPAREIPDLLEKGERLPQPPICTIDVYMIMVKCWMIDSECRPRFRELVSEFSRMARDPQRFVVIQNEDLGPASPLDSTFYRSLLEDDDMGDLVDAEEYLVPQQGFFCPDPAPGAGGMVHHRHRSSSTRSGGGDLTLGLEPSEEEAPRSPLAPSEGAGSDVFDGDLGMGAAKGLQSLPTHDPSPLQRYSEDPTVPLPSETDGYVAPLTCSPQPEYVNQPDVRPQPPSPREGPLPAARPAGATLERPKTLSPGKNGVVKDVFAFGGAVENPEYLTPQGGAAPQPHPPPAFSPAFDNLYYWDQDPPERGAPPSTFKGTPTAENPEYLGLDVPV
Text: as §1

[10] = tested on: Human Umbilical Cord Endothelial Cells stimulated by the VEGF; assay: HUVEC cellular assay (cellular proliferation inhibition); type: cell-based
Text: as §1

| Compound | hygroscopicity [1] | solubility [2] | amorphisation [3] | in-vitro inhibitory activity on PDGFR-alpha [4] | in-vitro inhibitory activity on InsR [5] | in-vitro inhibitory activity on VEGFR-3 [6] | in-vitro inhibitory activity on VEGFR-2 [7] | in-vitro inhibitory activity on FGFR-1 [8] | in-vitro inhibitory activity on Her-2 [9] | inhibition of the proliferation of HUVEC VEGF stimulated cells [10] |
| --- | --- | --- | --- | --- | --- | --- | --- | --- | --- | --- |
| CCS(=O)(=O)O.COC(=O)c1ccc2c(c1)NC(=O)/C2=C(\Nc1ccc(N(C)C(=O)CN2CCN(C)CC2)cc1)c1ccccc1 [monoethanesulphonate, 3-Z-[1-(4-(N-((4-methyl-piperazin-1-yl)-methylcarbonyl)-N-methyl-amino)-anilino)-1-phenyl-methylene]-6-methoxycarbonyl-2-indolinone-monoethanesulphonate] | not hygroscopic | readily soluble | low amorphisation | – | – | – | – | – | – | – |
| CN1CCN(C(=O)N(C)c2ccc(N/C(=C3\C(=O)Nc4cc(C(=O)O)ccc43)c3ccccc3)cc2)CC1 [3-Z-[1-(4-(N-((4-methyl-piperazin-1-yl)-carbonyl)-N-methyl-amino)-anilino)-1-phenyl-methylene]-6-carboxy-2-indolinone] | – | – | – | inhibits | inhibits | inhibits | inhibits | inhibits | inhibits | inhibits |
